Several values for one entry are separate records, joined by “and”; a condition that tells them apart may be missing. Equal values may be shown once. Toxic doses and inconclusive results are not listed. Where a SMILES comes first, the peptide text is derived from it. [ ]: non-standard residue; d: D form. The star is where a group is joined. Nle = CCCC[CH](N)C(=O)O; Cbz = O=C(OCc1ccccc1)*
Tested on: B6C3F1 mice, B16 melanoma ip, median survival T/C
Assay: NCI In Vivo Anticancer Drug Screen. Data for tumor model B16 Melanoma (intraperitoneal) in B6C3F1 mice
Settings: endpoint: median survival time, higher = longer survival
Summary of the method: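 Mice bearing transplanted tumor were dosed with compound or vehicle, and survival was recorded. Activity is expressed as the treated-group measurement (T) divided by the vehicle control measurement (C).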

[1] = dose: 12.5 mg/kg/injection, schedule: Q01DX009 (ip), vehicle: saline with Tween-80
[2] = dose: 12.5 mg/kg/injection, schedule: Q01DX009 (ip), vehicle: suspension in saline
[3] = dose: 25.0 mg/kg/injection, schedule: Q01DX009 (ip), vehicle: saline with Tween-80
[4] = dose: 25.0 mg/kg/injection, schedule: Q01DX009 (ip), vehicle: suspension in saline
[5] = dose: 50.0 mg/kg/injection, schedule: Q01DX009 (ip), vehicle: saline with Tween-80
[6] = dose: 50.0 mg/kg/injection, schedule: Q01DX009 (ip), vehicle: suspension in saline
[7] = dose: 100.0 mg/kg/injection, schedule: Q01DX009 (ip), vehicle: saline with Tween-80
[8] = dose: 100.0 mg/kg/injection, schedule: Q01DX009 (ip), vehicle: suspension in saline
[9] = dose: 200.0 mg/kg/injection, schedule: Q01DX009 (ip), vehicle: saline with Tween-80
[10] = dose: 200.0 mg/kg/injection, schedule: Q01DX009 (ip), vehicle: suspension in saline
[11] = dose: 400.0 mg/kg/injection, schedule: Q01DX009 (ip), vehicle: suspension in saline
[12] = dose: 25.0 mg/kg/injection, schedule: Q01DX009 (ip), vehicle: Klucel (hydroxypropylcellulose) (HPC)
[13] = dose: 50.0 mg/kg/injection, schedule: Q01DX009 (ip), vehicle: Klucel (hydroxypropylcellulose) (HPC)
[14] = dose: 100.0 mg/kg/injection, schedule: Q01DX009 (ip), vehicle: Klucel (hydroxypropylcellulose) (HPC)
[15] = dose: 200.0 mg/kg/injection, schedule: Q01DX009 (ip), vehicle: Klucel (hydroxypropylcellulose) (HPC)
[16] = dose: 6.25 mg/kg/injection, schedule: Q01DX009 (ip), vehicle: saline
[17] = dose: 12.5 mg/kg/injection, schedule: Q01DX009 (ip), vehicle: saline
[18] = dose: 25.0 mg/kg/injection, schedule: Q01DX009 (ip), vehicle: saline
[19] = dose: 50.0 mg/kg/injection, schedule: Q01DX009 (ip), vehicle: saline
[20] = dose: 100.0 mg/kg/injection, schedule: Q01DX009 (ip), vehicle: saline
[21] = dose: 200.0 mg/kg/injection, schedule: Q01DX009 (ip), vehicle: saline
[22] = dose: 400.0 mg/kg/injection, schedule: Q01DX009 (ip), vehicle: saline

O=C1NC(O)c2ccccc2O1 (centres undefined)
T/C [1]: 99 % of control
T/C [2]: 101 % of control
T/C [3]: 103 % of control
T/C [4]: 103 % of control
T/C [5]: 103 % of control
T/C [6]: 101 % of control
T/C [7]: 106 % of control
T/C [8]: 98 % of control
T/C [9]: 114 % of control
T/C [10]: 100 % of control
T/C [11]: 95 % of control

O=c1nc(-c2ccco2)sc(=O)[nH]1
T/C [12]: 95 % of control
T/C [13]: 99 % of control
T/C [14]: 118 % of control
T/C [15]: 112 % of control

CCCCC(NC(=O)OCc1ccccc1)C(=O)NC(C(=O)O)C(C)C (centres undefined) (Cbz-[Nle]-Val-OH; configuration not given here)
T/C [14]: 108 % of control
T/C [15]: 105 % of control

COc1cc(C)c2c(c1C=O)Oc1c(c(C)c(O)c3c1C(O)OC3=O)OC2=O (centres undefined)
T/C (dose: 3.12 mg/kg/injection, schedule: Q01DX009 (ip), vehicle: saline): 94 % of control
T/C [16]: 100 % of control
T/C [17]: 105 % of control
T/C [18]: 98 % of control
T/C [19]: 98 % of control

CCCCCCCCCCCCCCCC(=O)OCC1OC(n2ccc(N)nc2=O)C(O)C1O (centres undefined)
T/C (dose: 3.75 mg/kg/injection, schedule: Q01DX009 (ip), vehicle: saline with Tween-80): 117 % of control
T/C (dose: 7.5 mg/kg/injection, schedule: Q01DX009 (ip), vehicle: saline with Tween-80): 113 % of control and 121 % of control

CCN(CC)CCC(=O)c1ccccc1
T/C (dose: 3.12 mg/kg/injection, schedule: Q01DX009 (ip), vehicle: suspension in saline): 97 % of control
T/C (dose: 6.25 mg/kg/injection, schedule: Q01DX009 (ip), vehicle: suspension in saline): 98 % of control
T/C [2]: 104 % of control
T/C [4]: 107 % of control
T/C [6]: 124 % of control

CN1CCN(c2ccc3nc(-c4ccc5nc(-c6ccc(O)cc6)[nH]c5c4)[nH]c3c2)CC1
T/C [16]: 95 % of control
T/C [17]: 99 % of control
T/C [18]: 89 % of control

COCCOC
T/C [20]: 98 % of control
T/C [21]: 94 % of control
T/C [22]: 96 % of control

CCCCC(C)(CCN)CCCC
T/C [18]: 105 % of control
T/C [19]: 122 % of control
T/C [20]: 101 % of control

NC(CCCCNC=O)C(=O)O (centres undefined)
T/C [20]: 110 % of control
T/C [21]: 121 % of control
T/C [22]: 116 % of control

O=NNc1ccc(Br)cn1
T/C (dose: 1.56 mg/kg/injection, schedule: Q01DX009 (ip), vehicle: water): 110 % of control and 112 % of control
T/C (dose: 3.12 mg/kg/injection, schedule: Q01DX009 (ip), vehicle: water): 119 % of control and 124 % of control
T/C (dose: 12.5 mg/kg/injection, schedule: Q01DX009 (ip), vehicle: water): 158 % of control and 170 % of control

N=C1C=C[C@]2(O)C[C@H](Cl)CN12
T/C (dose: 0.75 mg/kg/injection, schedule: Q01DX009 (ip), vehicle: saline): 102 % of control
T/C (dose: 1.5 mg/kg/injection, schedule: Q01DX009 (ip), vehicle: saline): 111 % of control
T/C (dose: 3.0 mg/kg/injection, schedule: Q01DX009 (ip), vehicle: saline): 119 % of control
T/C (dose: 6.0 mg/kg/injection, schedule: Q01DX009 (ip), vehicle: saline): 104 % of control

N[C@@H](Cc1ccc(O)c(O)c1)C(=O)O
T/C [6]: 94 % of control
T/C [8]: 110 % of control
T/C [10]: 100 % of control
T/C [11]: 101 % of control and 104 % of control
T/C (dose: 800.0 mg/kg/injection, schedule: Q01DX009 (ip), vehicle: suspension in saline): 93 % of control and 105 % of control
T/C (dose: 1200.0 mg/kg/injection, schedule: Q01DX009 (ip), vehicle: suspension in saline): 97 % of control
T/C (dose: 1600.0 mg/kg/injection, schedule: Q01DX009 (ip), vehicle: suspension in saline): 100 % of control

O=C(O)CC(=O)O.[NH-]CC[NH-].[Pt+2]
T/C (dose: 12.5 mg/kg/injection, schedule: Q01DX009 (ip), vehicle: dextrose): 175 % of control
T/C (dose: 25.0 mg/kg/injection, schedule: Q01DX009 (ip), vehicle: dextrose): 86 % of control

CC(O)CCC(=O)c1ccoc1 (centres undefined)
T/C (dose: 0.62 mg/kg/injection, schedule: Q03HX027 (ip), vehicle: saline): 97 % of control
T/C (dose: 1.25 mg/kg/injection, schedule: Q03HX027 (ip), vehicle: saline): 113 % of control
T/C (dose: 2.5 mg/kg/injection, schedule: Q03HX027 (ip), vehicle: saline): 105 % of control
T/C (dose: 5.0 mg/kg/injection, schedule: Q01DX009 (ip), vehicle: saline): 105 % of control
T/C (dose: 5.0 mg/kg/injection, schedule: Q03HX027 (ip), vehicle: saline): 114 % of control
T/C (dose: 10.0 mg/kg/injection, schedule: Q01DX009 (ip), vehicle: saline): 93 % of control
T/C (dose: 10.0 mg/kg/injection, schedule: Q03HX027 (ip), vehicle: saline): 105 % of control
T/C (dose: 20.0 mg/kg/injection, schedule: Q01DX009 (ip), vehicle: saline): 98 % of control

Cc1ccc(S(=O)(=O)OCOS(=O)(=O)c2ccc(C)cc2)cc1
T/C [13]: 120 % of control and 122 % of control
T/C [14]: 117 % of control
T/C [15]: 154 % of control
T/C (dose: 400.0 mg/kg/injection, schedule: Q01DX009 (ip), vehicle: Klucel (hydroxypropylcellulose) (HPC)): 191 % of control

CCC(=O)Sc1ccccc1C(=O)Nc1ccc(Cl)cc1
T/C [3]: 104 % of control
T/C [5]: 117 % of control
T/C [7]: 108 % of control
T/C [9]: 115 % of control

O=C1CC2(C(=O)N1CN1CCCCC1)c1ccccc1-c1ccccc12
T/C (dose: 12.5 mg/kg/injection, schedule: Q01DX009 (ip), vehicle: Klucel (hydroxypropylcellulose) (HPC)): 91 % of control
T/C [12]: 95 % of control
T/C [13]: 95 % of control
T/C [14]: 110 % of control
T/C [15]: 92 % of control

CC(=O)OC1=C(Br)CCc2ccccc21
T/C (dose: 3.12 mg/kg/injection, schedule: Q01DX009 (ip), vehicle: DMSO): 88 % of control
T/C (dose: 6.25 mg/kg/injection, schedule: Q01DX009 (ip), vehicle: DMSO): 87 % of control
T/C (dose: 12.5 mg/kg/injection, schedule: Q01DX009 (ip), vehicle: DMSO): 88 % of control
T/C (dose: 25.0 mg/kg/injection, schedule: Q01DX009 (ip), vehicle: DMSO): 91 % of control

Cc1nc(N)nc(N)c1-c1ccc(Cl)c(Cl)c1
T/C (dose: 0.31 mg/kg/injection, schedule: Q01DX009 (ip), vehicle: saline with Tween-80): 102 % of control
T/C (dose: 0.62 mg/kg/injection, schedule: Q01DX009 (ip), vehicle: saline): 116 % of control
T/C (dose: 0.63 mg/kg/injection, schedule: Q01DX009 (ip), vehicle: saline with Tween-80): 104 % of control
T/C (dose: 1.25 mg/kg/injection, schedule: Q01DX009 (ip), vehicle: saline with Tween-80): 102 % of control
T/C (dose: 1.25 mg/kg/injection, schedule: Q01DX009 (ip), vehicle: saline): 101 % of control and 102 % of control
T/C (dose: 2.5 mg/kg/injection, schedule: Q01DX009 (ip), vehicle: saline with Tween-80): 113 % of control
T/C (dose: 2.5 mg/kg/injection, schedule: Q01DX009 (ip), vehicle: saline): 116 % of control

COC1C(O)C(C)OC(OC2C(Oc3cccc4c(O)c5c(=O)oc6ccc(C)c7c(=O)oc(c34)c5c67)OC(C)C(O)C2O)C1O (centres undefined)
T/C [3]: 170 % of control
T/C [5]: 168 % of control

C[CH2][Ge]([CH2]C)[CH2]C.C[CH2][Ge]([CH2]C)[CH2]C.C[CH2][Ge]([CH2]C)[O][Ge]([CH2]C)[CH2]C
T/C (dose: 3.13 mg/kg/injection, schedule: Q01DX009 (ip), vehicle: saline with Tween-80): 89 % of control
T/C (dose: 6.25 mg/kg/injection, schedule: Q01DX009 (ip), vehicle: saline with Tween-80): 93 % of control
T/C [1]: 87 % of control
